According to publication PMC12340956, “Tranylcypromine-Based LSD1 Inhibitors as Useful Agents to Reduce Viability of” (ACS Infectious Diseases, 2025):

Columns and labels:
[1] = biological target: T1, human LSD1-CoREST complex (Homo sapiens, UniProt O60341); assay: Spectrophotometric analysis of flavin cofactor bleaching; format: biochemical
T1 construct: made in house

[2] = biological target: T1, human LSD1-CoREST complex; assay: HRP-coupled LSD1 inhibition assay; format: biochemical; details: 10 min preincubation
Summary of the method: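 Human LSD1-CoREST inhibition measured in an HRP-coupled format, with the reaction started by adding substrate to the preformed enzyme–inhibitor mixture. Resorufin fluorescence read at excitation 530–570 nm and emission 580–590 nm.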

[3] = biological target: T1, human LSD1-CoREST complex; assay: ThermoFAD thermal stability assay; format: binding
Summary of the method: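 Thermal shift (ΔTm) of human LSD1-CoREST measured by ThermoFAD following established protocols. For the parallel inhibition read-out, 0.4 μM LSD1-CoREST was preincubated with inhibitor 10 min at 25 °C in 5% DMSO, then substrate added and resorufin fluorescence (ex 530–570, em 580–590 nm) recorded.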

- bleaching of the flavin cofactor [1]: no bleaching
- IC50 (hLSD1 direct inhibition) [2]: inactive
- IC50 ([2]; read-out: IC50 (hLSD1 direct inhibition)): > 100 µM
- thermal shift compared to the control [3]: no thermal shift
- ΔTm ([3]; LSD1-CoREST thermal stability): 0 °C
Structure (SMILES): CC#Cc1ccc(C(=O)Nc2cccc(C3CC3N)c2)cc1.Cl (centres unmarked) [Compound 21, N-(3-(2-Aminocyclopropyl)phenyl)-4-(prop-1-yn-1-yl)benzamide Hydrochloride]
